A word on the MIC: it is the lowest concentration found to suppress growth. As usually defined, the IC50 is the concentration at which inhibition is half-maximal.

In brackets after ≈: the same amount, converted by molar mass. Activity calls are given as the source filed them. The calls are words filed in the database; no cut-off is given here.

This passage reports MIC, IC50 and Activity results from ChEMBL document CHEMBL5143602, “Design, synthesis and antibacterial evaluation of pleuromutilin derivatives” (Bioorg Med Chem, 2022).

Assay [1] has as its system Staphylococcus aureus. The experiment in a line: Antibacterial activity against methicillin-sensitive Staphylococcus aureus ATCC 29213 assessed as inhibition of bacterial growth incubated for 18 hrs by two-fold serial dilution method. The class given is functional.
The subject of assay [2] is Staphylococcus aureus. The assay is described as follows: Antibacterial activity against methicillin-resistant Staphylococcus aureus ATCC 43300 assessed as inhibition of bacterial growth incubated for 18 hrs by two-fold serial dilution method. The format is functional.
Assay [3] deals with Enterococcus faecium. The experiment in a line: Antibacterial activity against Enterococcus faecium ATCC19434 assessed as inhibition of bacterial growth incubated for 18 hrs by two-fold serial dilution method. The format is functional.
Assay [4] deals with Staphylococcus epidermidis. The assay is described as follows: Antibacterial activity against Staphylococcus epidermidis ATCC12228 assessed as inhibition of bacterial growth incubated for 18 hrs by two-fold serial dilution method. The format is functional.
Assay [5] has as its system Mycoplasmoides pneumoniae. The experiment in a line: Antibacterial activity against Mycoplasma pneumoniae ATCC15531 assessed as inhibition of bacterial growth incubated for 18 hrs by two-fold serial dilution method. The class given is functional.
For assay [6], the system named is Mycoplasmoides pneumoniae. The experiment in a line: Antibacterial activity against Mycoplasma pneumoniae ATCC29342 assessed as inhibition of bacterial growth incubated for 18 hrs by two-fold serial dilution method. The format is functional.
Assay [7] relates to Mycoplasmoides pneumoniae. The experiment in a line: Antibacterial activity against drug resistant Mycoplasma pneumoniae assessed as inhibition of bacterial growth incubated for 18 hrs by two-fold serial dilution method. The class given is functional.
Assay [8] concerns HepG2. The experiment in a line: Cytotoxicity against human HepG2 cells assessed as cell growth inhibition measured after 72 hrs by MTT assay. The format is functional, cell-based. As to conditions: HepG2, 72 h.
The subject of assay [9] is U-87 MG. The assay is described as follows: Cytotoxicity against human U87 cells assessed as cell growth inhibition measured after 72 hrs by MTT assay. The class given is functional, cell-based, U-87MG ATCC. In general terms: Tetrazolium dyes change colour on reduction, which living cells bring about.
Assay [10] relates to HGC-27. The assay is described as follows: Cytotoxicity against human HGC-27 cells assessed as cell growth inhibition measured after 72 hrs by MTT assay. The class given is functional, cell-based. As to conditions: HGC-27, 72 h.
For assay [11], the system named is HT-29. The experiment in a line: Cytotoxicity against human HT-29 cells assessed as cell growth inhibition measured after 72 hrs by MTT assay. The class given is functional, cell-based. To be noted: HT-29, 72 h.
Assay [12] relates to MCF7. The assay is described as follows: Cytotoxicity against human MCF7 cells assessed as cell growth inhibition measured after 72 hrs by MTT assay. To be noted: MCF7, 72 h. The class given is functional, cell-based.
For assay [13], the system named is Staphylococcus aureus. The assay is described as follows: Bactericidal activity against methicillin-resistant Staphylococcus aureus ATCC 43300 at 4 times MIC and measured after 24 hrs by time kill curve assay relative to control. The format is functional, organism-based.
Assay [14] relates to Staphylococcus aureus. The assay is described as follows: Bactericidal activity against methicillin-resistant Staphylococcus aureus ATCC 43300 assessed as decrease in bacterial propagation at 2 to 8 times MIC and measured after 24 hrs by time kill curve assay relative to control. The format is functional, organism-based.

`C=C[C@]1(C)C[C@@H](OC(=O)CNC(=O)Nc2ccc(F)cc2)[C@]2(C)[C@H](C)CC[C@]3(CCC(=O)[C@H]32)[C@@H](C)[C@@H]1O`: the MIC is 0.5 µg/mL (≈ 0.972 µM) in assay [1]; 0.125 µg/mL (≈ 0.243 µM) in assay [2]; 16 µg/mL (≈ 31.1 µM) in assay [3]; greater than 64 µg/mL in assay [4]; 0.25 µg/mL (≈ 0.486 µM) in [5]; 0.125 µg/mL (≈ 0.243 µM) in assay [6]. Moreover, the MIC in [7] came out at 1 µg/mL (≈ 1.94 µM). Also, the IC50 in assay [8], in assay [9], in assay [10], in assay [11] and in [12] was greater than 10 µM each time.

Turning to `C=C[C@]1(C)C[C@@H](OC(=O)CSCCN(CC)CC)[C@]2(C)[C@H](C)CC[C@]3(CCC(=O)[C@H]32)[C@@H](C)[C@@H]1O` [TIAMULIN], the MIC is 0.5 µg/mL (≈ 1.01 µM) in assay [1], 0.25 µg/mL (≈ 0.506 µM) in [2], 16 µg/mL (≈ 32.4 µM) in [3] and 32 µg/mL (≈ 64.8 µM) in [4]. For the same compound, the result in assay [13] was Active. Besides, the IC50 in assay [8], in [9], in assay [10], in assay [11] and in [12] was greater than 10 µM each time.

On to `C=C[C@]1(C)C[C@@H](OC(=O)CNC(=O)Nc2ccc(F)cc2F)[C@]2(C)[C@H](C)CC[C@]3(CCC(=O)[C@H]32)[C@@H](C)[C@@H]1O`, for which the MIC in [1] is 0.25 µg/mL (≈ 0.469 µM); in assay [2] it was 0.25 µg/mL (≈ 0.469 µM); in assay [3], 16 µg/mL (≈ 30 µM); in assay [4] it was greater than 64 µg/mL; in assay [5], 0.25 µg/mL (≈ 0.469 µM); in assay [6], 0.125 µg/mL (≈ 0.235 µM). In addition, in assay [7], the MIC was 1 µg/mL (≈ 1.88 µM). In addition, the IC50 in assay [8], in [9], in [10], in assay [11] and in assay [12] was greater than 10 µM in each case.

As for `C=C[C@]1(C)C[C@@H](OC(=O)CO)[C@]2(C)[C@H](C)CC[C@]3(CCC(=O)[C@H]32)[C@@H](C)[C@@H]1O` [PLEUROMULIN], the MIC in [1] was 1 µg/mL (≈ 2.64 µM); in [2] it was 2 µg/mL (≈ 5.28 µM); in [3], 32 µg/mL (≈ 84.5 µM); in [4], 16 µg/mL (≈ 42.3 µM); in [5] it was 0.125 µg/mL (≈ 0.33 µM); in assay [6], 0.0625 µg/mL (≈ 0.165 µM). Besides, in [7], the MIC is 0.25 µg/mL (≈ 0.66 µM).

For `C=C[C@]1(C)C[C@@H](OC(=O)CNC(=O)Nc2cccc(Br)c2)[C@]2(C)[C@H](C)CC[C@]3(CCC(=O)[C@H]32)[C@@H](C)[C@@H]1O`, the MIC in [1] was 0.0625 µg/mL (≈ 0.109 µM); in assay [2], 0.25 µg/mL (≈ 0.434 µM); in assay [3] it was 4 µg/mL (≈ 6.95 µM); in assay [4], greater than 64 µg/mL; in assay [5] it was 0.25 µg/mL (≈ 0.434 µM); in assay [6] it was 0.25 µg/mL (≈ 0.434 µM). In assay [7], the MIC was 1 µg/mL (≈ 1.74 µM). Besides, the IC50 in [8] was greater than 10 µM; in [9], greater than 10 µM; in assay [10], 3.95 µM; in assay [11] it was greater than 10 µM; in assay [12] it was greater than 10 µM.

For the compound `C=C[C@]1(C)C[C@@H](OC(=O)CNC(=O)Nc2ccccc2Br)[C@]2(C)[C@H](C)CC[C@]3(CCC(=O)[C@H]32)[C@@H](C)[C@@H]1O`, the MIC in assay [1] was 0.25 µg/mL (≈ 0.434 µM); in [2], 0.25 µg/mL (≈ 0.434 µM); in assay [3] it was 32 µg/mL (≈ 55.6 µM); in assay [4] it was greater than 64 µg/mL; in assay [5] it was 0.5 µg/mL (≈ 0.869 µM); in [6], 0.5 µg/mL (≈ 0.869 µM). Moreover, the MIC in [7] worked out at 2 µg/mL (≈ 3.47 µM). Also, the IC50 in [8], in assay [9], in assay [10], in assay [11] and in assay [12] was greater than 10 µM throughout.

For `C=C[C@]1(C)C[C@@H](OC(=O)CNC(=O)Nc2ccc(OC)cc2)[C@]2(C)[C@H](C)CC[C@]3(CCC(=O)[C@H]32)[C@@H](C)[C@@H]1O`, the MIC in assay [1] is 0.0625 µg/mL (≈ 0.119 µM); in [2] it was 0.5 µg/mL (≈ 0.949 µM); in [3], 8 µg/mL (≈ 15.2 µM); in assay [4], greater than 64 µg/mL; in assay [5], 0.125 µg/mL (≈ 0.237 µM); in assay [6], 0.0625 µg/mL (≈ 0.119 µM). In assay [7], the MIC is 0.5 µg/mL (≈ 0.949 µM). Also, the result in assay [14] was Active. The IC50 in assay [8], in [9], in [10], in assay [11] and in assay [12] was greater than 10 µM throughout.
